Earlier results on 1 compound are cited in patent publication US20030216458A1, “Combination therapy for the treatment of migraine” (priority 1999, published 2003).

The conditions of this data set: anaesthetized dog.

As to `CNS(=O)(=O)Cc1ccc2[nH]cc(CCN(C)C)c2c1` [Sumatriptan], the “effect on carotid vascular resistance” value is “selective increase in carotid vascular resistance”.
